Results: patent US11286228B2, “Stilbene derivative and method for preparing same” (Ozchela Inc., priority 2016, dated 2022)
pEC50, pIC50: −log10 of the molar value.

Each compound was assayed on mitochondria obtained from hepatocytes (assay: Inhibitory activity on calcium-induced mitochondrial swelling (absorbance 520 nm)). Settings: Hepatocyte; calcium-induced swelling of extracted mitochondria; read-out: Test Example 4: inhibiting mitochondrial swelling (IC50).
Source text: Cyclophilin is a key protein for forming permeability transition pores (PTP) in mitochondria. When permeability transition pores are formed, mitochondria swell, whereby the outer membrane thereof ruptures and thus cell death progresses. Such mitochondrial dysfunction causes many diseases including neurodegenerative diseases, cancer, and the like. Cyclosporine, a known cyclophilin inhibitor, is capable of preventing the formation of permeability transition pores to thus suppress mitochondrial swelling.
The mitochondrial swelling test was performed as follows. Specifically, the hepatocytes were disrupted using a Dounce tissue grinder. The disrupted cells were centrifuged at 700×g for 10 min and the supernatant was transferred into a new tube. The supernatant was centrifuged at 12,000×g for 15 min, thereby obtaining mitochondria.
When the extracted mitochondria were added with calcium, they swelled, which may be observed by measuring the absorbance at 520 nm. The stilbene derivatives are effective at inhibiting mitochondrial swelling due to calcium.
The activity of Compounds 1 to 155 of Tables 1 to 10 on inhibiting mitochondrial swelling may be determined based on IC50 values, and may be grouped as follows: […]
In the case of CC(C)(C)Cc1ccccc1C=C(C#N)c1ccc([N+](=O)[O-])cc1 [Compound 35], the pIC50 was 4.30 to 5.30.
For CC(C)CCc1ccccc1C=C(C#N)c1ccc([N+](=O)[O-])cc1 [Compound 36], the pIC50 was 4.30 to 5.30.
For N#CC(=Cc1ccccc1Cc1c(Cl)cccc1Cl)c1ccc([N+](=O)[O-])cc1 [Compound 37], the pIC50 was 4.30 to 5.30.
In the case of N#CC(=Cc1ccccc1CCc1ccccc1)c1ccc([N+](=O)[O-])cc1 [Compound 38], the pIC50 was 4.30 to 5.30.
For N#CC(=Cc1ccccc1CCC1CCCCC1)c1ccc([N+](=O)[O-])cc1 [Compound 39], the pIC50 was > 5.30.
N#CC(=Cc1ccccc1CCCC1CCCCC1)c1ccc([N+](=O)[O-])cc1 [Compound 40] was tested, and the pIC50 was > 5.30.
In the case of N#CC(=Cc1ccccc1CC1CCCCC1)c1ccc([N+](=O)[O-])cc1 [Compound 41], the pIC50 was > 5.30.
N#CC(=Cc1ccccc1CCCc1ccccc1)c1ccc([N+](=O)[O-])cc1 [Compound 42] showed a pIC50 of 3.30 to 4.30.
CC(C)(C)CCc1ccccc1C=C(C#N)c1ccc([N+](=O)[O-])cc1 [Compound 43] was tested, and the pIC50 was 4.30 to 5.30.
For CC(C)(C)c1ccc(CCc2ccccc2C=C(C#N)c2ccc([N+](=O)[O-])cc2)cc1 [Compound 45], the pIC50 was 4.30 to 5.30.
N#CC(=Cc1ccccc1CCc1ccccc1Cl)c1ccc([N+](=O)[O-])cc1 [Compound 46] gave a pIC50 of 4.30 to 5.30.
Compound N#CC(=Cc1ccccc1CCc1cccc(Cl)c1)c1ccc([N+](=O)[O-])cc1 [Compound 47] has a pIC50 of 4.30 to 5.30.
For N#CC(=Cc1ccccc1CCc1ccc(Cl)cc1)c1ccc([N+](=O)[O-])cc1 [Compound 48], the pIC50 was 4.30 to 5.30.
Work on COc1ccccc1CCc1ccccc1C=C(C#N)c1ccc([N+](=O)[O-])cc1 [Compound 49] yielded a pIC50 of 3.30 to 4.30.
Work on Cc1ccc(CCc2ccccc2C=C(C#N)c2ccc([N+](=O)[O-])cc2)cc1 [Compound 52] yielded a pIC50 of 4.30 to 5.30.

Same assay, conditions: calcium-induced swelling of extracted mitochondria; read-out: Test Example 4: inhibiting mitochondrial swelling (IC50)
Work on CCc1ccc(C(C#N)=Cc2ccccc2C(=O)O)cc1 [Compound 2] yielded a pIC50 of 3.30 to 4.30.
Work on CCc1ccc(C(C#N)=Cc2ccccc2N(C)C)cc1 [Compound 3] yielded a pIC50 of 3.30 to 4.30.
In the case of CCCCc1ccc(C(C#N)=Cc2ccccc2C(=O)O)cc1 [Compound 8], the pIC50 was 4.30 to 5.30.
CCC(C)c1ccc(C(C#N)=Cc2ccccc2C(=O)O)cc1 (stereo not drawn) [Compound 9] was tested, and the pIC50 was 4.30 to 5.30.
In the case of Cc1ccc(C(C#N)=Cc2ccccc2C(=O)O)cc1C [Compound 13], the pIC50 was 3.30 to 4.30.
CC(C)(C)C(=O)c1ccc(C(C#N)=Cc2ccccc2C(=O)O)cc1 [Compound 15] gave a pIC50 of 3.30 to 4.30.
Work on CCOc1ccc(C(C#N)=Cc2ccccc2C(=O)O)cc1 [Compound 17] yielded a pIC50 of 3.30 to 4.30.
CCCCOc1ccc(C(C#N)=Cc2ccccc2C(=O)O)cc1 [Compound 19] showed a pIC50 of 4.30 to 5.30.
For N#CC(=Cc1ccccc1C(=O)O)c1ccc(Cc2ccccc2)cc1 [Compound 21], the pIC50 was > 5.30.
Compound N#CC(=Cc1ccccc1OCC1CC1)c1ccc([N+](=O)[O-])cc1 [Compound 27] has a pIC50 of 4.30 to 5.30.

These compounds were tested against cyclophilin (assay: Cis-trans isomerase inhibitory activity (chymotrypsin-coupled Suc-AAPF-pNA cleavage, absorbance 390 nm)). Settings: cyclophilin, chymotrypsin, Suc-AAPF-pNA; read-out: Test Example 1: cis-trans isomerase inhibitory activity (IC50).
Format: biochemical
Source text: Chymotrypsin cleaves a trans-type alanine-proline peptide bond. When Suc-AAPF-pNA (a peptide substrate) and chymotrypsin are mixed, the trans-type peptide substrate is cleaved and the cis-type peptide substrate remains. The remaining cis-type peptide substrate is converted into a trans form by a cis-trans isomerase and is then cleaved again by chymotrypsin. When the cis-trans isomerase is present, chymotrypsin is able to cleave a larger amount of trans-type peptide substrate within a predetermined period of time, from which the activity of the cis-trans isomerase may be determined. The amount of the cleaved trans-type peptide substrate is measured using absorbance at 390 nm. Cyclophilin has cis-trans isomerase activity, and accelerates the cleavage of trans-type peptide substrate by chymotrypsin. When the stilbene derivatives of the present invention were treated together with cyclophilin, the cleavage of the peptide substrate by chymotrypsin was not observed to accelerate. Thereby, the stilbene derivatives of the invention can be concluded to inhibit the activity of cyclophilin.
With CCc1ccc(C(C#N)=Cc2ccccc2C(=O)O)cc1 [Compound 2] the pIC50 was 5.70 to 6.70.
CCc1ccc(C(C#N)=Cc2ccccc2N(C)C)cc1 [Compound 3] was tested, and the pIC50 was 5.70 to 6.70.
CCCCc1ccc(C(C#N)=Cc2ccccc2C(=O)O)cc1 [Compound 8] gave a pIC50 of 6.70 to 7.70.
CCC(C)c1ccc(C(C#N)=Cc2ccccc2C(=O)O)cc1 (stereo not drawn) [Compound 9] was tested, and the pIC50 was 6.70 to 7.70.
Work on Cc1ccc(C(C#N)=Cc2ccccc2C(=O)O)cc1C [Compound 13] yielded a pIC50 of 5.70 to 6.70.
For CC(C)(C)C(=O)c1ccc(C(C#N)=Cc2ccccc2C(=O)O)cc1 [Compound 15], the pIC50 was 5.70 to 6.70.
In the case of CCOc1ccc(C(C#N)=Cc2ccccc2C(=O)O)cc1 [Compound 17], the pIC50 was 5.70 to 6.70.
CCCCOc1ccc(C(C#N)=Cc2ccccc2C(=O)O)cc1 [Compound 19] gave a pIC50 of 6.70 to 7.70.
N#CC(=Cc1ccccc1C(=O)O)c1ccc(Cc2ccccc2)cc1 [Compound 21] was tested, and the pIC50 was ≥ 7.70.
N#CC(=Cc1ccccc1OCC1CC1)c1ccc([N+](=O)[O-])cc1 [Compound 27] gave a pIC50 of 6.70 to 7.70.
CC(C)(C)Cc1ccccc1C=C(C#N)c1ccc([N+](=O)[O-])cc1 [Compound 35] showed a pIC50 of 6.70 to 7.70.
Compound CC(C)CCc1ccccc1C=C(C#N)c1ccc([N+](=O)[O-])cc1 [Compound 36] has a pIC50 of 6.70 to 7.70.
N#CC(=Cc1ccccc1Cc1c(Cl)cccc1Cl)c1ccc([N+](=O)[O-])cc1 [Compound 37] gave a pIC50 of 6.70 to 7.70.
N#CC(=Cc1ccccc1CCc1ccccc1)c1ccc([N+](=O)[O-])cc1 [Compound 38] gave a pIC50 of 6.70 to 7.70.
With N#CC(=Cc1ccccc1CCC1CCCCC1)c1ccc([N+](=O)[O-])cc1 [Compound 39] the pIC50 was ≥ 7.70.
N#CC(=Cc1ccccc1CCCC1CCCCC1)c1ccc([N+](=O)[O-])cc1 [Compound 40] was tested, and the pIC50 was ≥ 7.70.
N#CC(=Cc1ccccc1CC1CCCCC1)c1ccc([N+](=O)[O-])cc1 [Compound 41] was tested, and the pIC50 was ≥ 7.70.
Work on N#CC(=Cc1ccccc1CCCc1ccccc1)c1ccc([N+](=O)[O-])cc1 [Compound 42] yielded a pIC50 of 5.70 to 6.70.
In the case of CC(C)(C)CCc1ccccc1C=C(C#N)c1ccc([N+](=O)[O-])cc1 [Compound 43], the pIC50 was 6.70 to 7.70.
Work on CC(C)(C)c1ccc(CCc2ccccc2C=C(C#N)c2ccc([N+](=O)[O-])cc2)cc1 [Compound 45] yielded a pIC50 of 6.70 to 7.70.
Work on N#CC(=Cc1ccccc1CCc1ccccc1Cl)c1ccc([N+](=O)[O-])cc1 [Compound 46] yielded a pIC50 of 6.70 to 7.70.
N#CC(=Cc1ccccc1CCc1cccc(Cl)c1)c1ccc([N+](=O)[O-])cc1 [Compound 47] was tested, and the pIC50 was 6.70 to 7.70.
N#CC(=Cc1ccccc1CCc1ccc(Cl)cc1)c1ccc([N+](=O)[O-])cc1 [Compound 48] was tested, and the pIC50 was 6.70 to 7.70.
With COc1ccccc1CCc1ccccc1C=C(C#N)c1ccc([N+](=O)[O-])cc1 [Compound 49] the pIC50 was 5.70 to 6.70.
Compound Cc1ccc(CCc2ccccc2C=C(C#N)c2ccc([N+](=O)[O-])cc2)cc1 [Compound 52] has a pIC50 of 6.70 to 7.70.

The compounds below were run on hepatitis C virus (assay: Antiviral activity in HCV replicon cells (Renilla luciferase)). Settings: HCV replicon cells, 72 hr, Renilla luciferase, relative to DMSO; read-out: Test Example 3: antiviral activity (EC50).
Format: cell-based
Protocol: The antiviral activity of the stilbene derivatives on hepatitis C virus was measured. The replicon cells that stably replicate the hepatitis C virus genome were attached to a culture plate and cultured in a CO2 incubator at 37° C. for 24 hr. The replicon cells cultured for one day were washed with a PBS solution, treated with the compounds of the present invention, and then cultured for 72 hr. The stilbene derivative-treated replicon cells were washed with a cold PBS solution and added with 20 μL of a cell lysis solution so that the cells were lysed in ice for 20 min. 100 μL of a Renilla luciferase substrate was added thereto, after which the luminescence thereof was measured and thus the amount of the hepatitis C virus genome was estimated. The amount of the hepatitis C virus genome in the stilbene derivative-treated replicon cells according to the present invention relative to the amount of the hepatitis C virus genome in dimethylsulfoxide (DMSO)-treated replicon cells is shown.
Compounds 1 to 155 of Tables 1 to 10 may be grouped as follows based on the antiviral activity (EC50) values: […]
With CCc1ccc(C(C#N)=Cc2ccccc2C(=O)O)cc1 [Compound 2] the pEC50 was 4.30 to 5.30.
Work on CCc1ccc(C(C#N)=Cc2ccccc2N(C)C)cc1 [Compound 3] yielded a pEC50 of 4.30 to 5.30.
In the case of CCCCc1ccc(C(C#N)=Cc2ccccc2C(=O)O)cc1 [Compound 8], the pEC50 was 5.30 to 6.30.
CCC(C)c1ccc(C(C#N)=Cc2ccccc2C(=O)O)cc1 (stereo not drawn) [Compound 9] showed a pEC50 of 5.30 to 6.30.
In the case of Cc1ccc(C(C#N)=Cc2ccccc2C(=O)O)cc1C [Compound 13], the pEC50 was 4.30 to 5.30.
CC(C)(C)C(=O)c1ccc(C(C#N)=Cc2ccccc2C(=O)O)cc1 [Compound 15] showed a pEC50 of 4.30 to 5.30.
CCOc1ccc(C(C#N)=Cc2ccccc2C(=O)O)cc1 [Compound 17] gave a pEC50 of 4.30 to 5.30.
Work on CCCCOc1ccc(C(C#N)=Cc2ccccc2C(=O)O)cc1 [Compound 19] yielded a pEC50 of 5.30 to 6.30.
For N#CC(=Cc1ccccc1C(=O)O)c1ccc(Cc2ccccc2)cc1 [Compound 21], the pEC50 was > 6.30.
For N#CC(=Cc1ccccc1OCC1CC1)c1ccc([N+](=O)[O-])cc1 [Compound 27], the pEC50 was 5.30 to 6.30.

Same assay, conditions: Hepatitis C virus, 72 h, read-out: Test Example 3: antiviral activity (EC50)
Compound N#CC(=Cc1ccccc1CCc1ccc(Cl)cc1)c1ccc([N+](=O)[O-])cc1 [Compound 48] has a pEC50 of 5.30 to 6.30.

Same assay, conditions: Hepatitis C virus; HCV replicon cells, 72 hr, Renilla luciferase, relative to DMSO; read-out: Test Example 3: antiviral activity (EC50)
In the case of CC(C)(C)Cc1ccccc1C=C(C#N)c1ccc([N+](=O)[O-])cc1 [Compound 35], the pEC50 was 5.30 to 6.30.
Work on CC(C)CCc1ccccc1C=C(C#N)c1ccc([N+](=O)[O-])cc1 [Compound 36] yielded a pEC50 of 5.30 to 6.30.
With N#CC(=Cc1ccccc1Cc1c(Cl)cccc1Cl)c1ccc([N+](=O)[O-])cc1 [Compound 37] the pEC50 was 5.30 to 6.30.
N#CC(=Cc1ccccc1CCc1ccccc1)c1ccc([N+](=O)[O-])cc1 [Compound 38] gave a pEC50 of 5.30 to 6.30.
With N#CC(=Cc1ccccc1CCC1CCCCC1)c1ccc([N+](=O)[O-])cc1 [Compound 39] the pEC50 was > 6.30.
N#CC(=Cc1ccccc1CCCC1CCCCC1)c1ccc([N+](=O)[O-])cc1 [Compound 40] was tested, and the pEC50 was > 6.30.
N#CC(=Cc1ccccc1CC1CCCCC1)c1ccc([N+](=O)[O-])cc1 [Compound 41] was tested, and the pEC50 was > 6.30.
For N#CC(=Cc1ccccc1CCCc1ccccc1)c1ccc([N+](=O)[O-])cc1 [Compound 42], the pEC50 was 4.30 to 5.30.
Work on CC(C)(C)CCc1ccccc1C=C(C#N)c1ccc([N+](=O)[O-])cc1 [Compound 43] yielded a pEC50 of 5.30 to 6.30.
CC(C)(C)c1ccc(CCc2ccccc2C=C(C#N)c2ccc([N+](=O)[O-])cc2)cc1 [Compound 45] gave a pEC50 of 5.30 to 6.30.
N#CC(=Cc1ccccc1CCc1ccccc1Cl)c1ccc([N+](=O)[O-])cc1 [Compound 46] showed a pEC50 of 5.30 to 6.30.
N#CC(=Cc1ccccc1CCc1cccc(Cl)c1)c1ccc([N+](=O)[O-])cc1 [Compound 47] showed a pEC50 of 5.30 to 6.30.
COc1ccccc1CCc1ccccc1C=C(C#N)c1ccc([N+](=O)[O-])cc1 [Compound 49] gave a pEC50 of 4.30 to 5.30.
Work on Cc1ccc(CCc2ccccc2C=C(C#N)c2ccc([N+](=O)[O-])cc2)cc1 [Compound 52] yielded a pEC50 of 5.30 to 6.30.
